PubChem BioAssay (NCI)
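Dose response: 5 concentrations. Exposure: 48 h. Format: 96-well plates. Endpoint: linear interpolation; highest concentration if not reached. At the TGI there is no net growth.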

Key:
Experiment in all cases: growth of human tumour cells (NCI), 48 h
[1] = tested on: UO-31 renal
[2] = tested on: SK-OV-3 ovarian
[3] = tested on: LOX IMVI melanoma
[4] = tested on: SF-539 CNS
[5] = tested on: CCRF-CEM leukemia
[6] = tested on: SK-MEL-2 melanoma
[7] = tested on: M14 melanoma
[8] = tested on: SNB-75 CNS
[9] = tested on: MOLT-4 leukemia
[10] = tested on: T-47D breast

## CCCCCC(/C=C/[C@@H]1CC(=O)C[C@H]1O[Si](C)(C)C(C)(C)C)OCOCCOC (stereo not given in full)
[1]
  TGI: 6.44 µM
[2]
  TGI: 32 µM
[3]
  TGI: 7 µM
[4]
  TGI: 5.98 µM
[5]
  TGI: > 100 µM
[6]
  TGI: 12.6 µM
[7]
  TGI: 19.5 µM
[8]
  TGI: 11.5 µM
[9]
  TGI: 4.97 µM
[10]
  TGI: 44 µM

## CCOC(OCC)C(CCc1ccccc1)c1c(N)nc(N)[nH]c1=O (stereo not given)
[1]
  TGI: > 100 µM
[2]
  TGI: 90.7 µM
[3]
  TGI: > 100 µM
[4]
  TGI: > 100 µM
[5]
  TGI: > 100 µM
[6]
  TGI: > 100 µM
[7]
  TGI: > 100 µM
[8]
  TGI: > 100 µM
[9]
  TGI: > 100 µM
[10]
  TGI: > 100 µM

## O=C(c1ccc(Cl)cc1)N1N=C(c2ccc(Cl)cc2)CC1(O)c1cc(F)c(Cl)cc1Cl (stereo not given)
[1]
  TGI: 22.2 µM
[2]
  TGI: > 100 µM
[3]
  TGI: 43.3 µM
[4]
  TGI: > 100 µM
[5]
  TGI: > 100 µM
[6]
  TGI: 39 µM
[7]
  TGI: 78.3 µM
[8]
  TGI: 44.5 µM
[9]
  TGI: > 100 µM
[10]
  TGI: > 100 µM

## COC(=O)C1(NC(=O)C(N)CC(=O)O)C(C)C1C (stereo not given)
[1]
  TGI: > 100 µM
[2]
  TGI: > 100 µM
[3]
  TGI: > 100 µM
[4]
  TGI: > 100 µM
[5]
  TGI: > 100 µM
[6]
  TGI: > 100 µM
[7]
  TGI: > 100 µM
[8]
  TGI: > 100 µM
[9]
  TGI: > 100 µM
[10]
  TGI: > 100 µM

## Cc1ccc(S(=O)(=Nc2ccccc2)C(C(C)C)C(C)(C)Cl)cc1 (stereo not given)
[1]
  TGI: > 50 µM
[2]
  TGI: > 50 µM
[3]
  TGI: > 50 µM
[4]
  TGI: > 50 µM
[5]
  TGI: > 50 µM
[6]
  TGI: 43.9 µM
[7]
  TGI: > 50 µM
[8]
  TGI: > 50 µM
[9]
  TGI: 32.3 µM
[10]
  TGI: > 50 µM

## O=C1c2ccccc2C(=O)N1C(=S)c1ccccc1
[1]
  TGI: > 100 µM
[2]
  TGI: > 100 µM
[3]
  TGI: > 100 µM
[4]
  TGI: > 100 µM
[5]
  TGI: > 100 µM
[6]
  TGI: > 100 µM
[7]
  TGI: > 100 µM
[8]
  TGI: > 100 µM
[9]
  TGI: > 100 µM
[10]
  TGI: > 100 µM

## O=C(Nc1ccc2ccccc2c1)Nn1cnnc1
[1]
  TGI: > 100 µM
[2]
  TGI: > 100 µM
[3]
  TGI: > 100 µM
[4]
  TGI: > 100 µM
[5]
  TGI: > 100 µM
[6]
  TGI: > 100 µM
[7]
  TGI: > 100 µM
[8]
  TGI: > 100 µM
[9]
  TGI: > 100 µM
[10]
  TGI: > 100 µM

## [N-]=[N+]=C1CNC(=O)NC1=O
[1]
  TGI: > 100 µM
[2]
  TGI: > 100 µM
[3]
  TGI: > 100 µM
[4]
  TGI: > 100 µM
[5]
  TGI: > 100 µM
[6]
  TGI: > 100 µM
[7]
  TGI: > 100 µM
[8]
  TGI: > 100 µM
[9]
  TGI: > 100 µM
[10]
  TGI: > 100 µM
